Assay results from paper PMC7037682, “Herb–Drug Interaction of Red Ginseng Extract and Ginsenoside Rc with Valsartan in Rats” (Molecules, 2020).
Where two headings read alike, the source gives them in different places.

Key:
OATP1B3 = biological target: T1, OATP1B3 (Homo sapiens, UniProt Q9NPD5); test: Inhibition of OATP1B3-mediated [3H]estradiol-17β-D-glucuronide uptake in HEK293-OATP1B3 cells
T1 sequence (Q9NPD5 1-702): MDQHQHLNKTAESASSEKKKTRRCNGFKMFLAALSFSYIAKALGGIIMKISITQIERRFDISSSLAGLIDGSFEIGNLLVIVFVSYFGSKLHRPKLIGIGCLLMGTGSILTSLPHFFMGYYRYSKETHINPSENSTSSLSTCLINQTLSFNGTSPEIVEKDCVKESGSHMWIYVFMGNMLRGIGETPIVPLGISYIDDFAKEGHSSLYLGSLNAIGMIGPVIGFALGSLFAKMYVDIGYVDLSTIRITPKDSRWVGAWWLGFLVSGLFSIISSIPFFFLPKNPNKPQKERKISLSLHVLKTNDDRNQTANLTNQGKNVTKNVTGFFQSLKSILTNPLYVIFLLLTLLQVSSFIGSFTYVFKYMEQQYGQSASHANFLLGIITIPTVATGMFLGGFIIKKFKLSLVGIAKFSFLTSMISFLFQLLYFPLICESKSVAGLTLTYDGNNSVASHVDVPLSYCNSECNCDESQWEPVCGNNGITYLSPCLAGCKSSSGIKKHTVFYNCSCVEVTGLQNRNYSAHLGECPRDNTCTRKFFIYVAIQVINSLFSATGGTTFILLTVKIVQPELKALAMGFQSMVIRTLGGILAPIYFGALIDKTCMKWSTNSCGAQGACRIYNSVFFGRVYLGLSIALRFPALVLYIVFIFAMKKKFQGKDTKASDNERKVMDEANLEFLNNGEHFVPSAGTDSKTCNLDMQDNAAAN
Method: (§1) HEK293 cells overexpressing the OCT1, OCT2, OAT1, OAT3, OATP1B1, and OATP1B3 transporters (HEK293-OCT1, -OCT2, -OAT1, -OAT3, -OATP1B1, and -OATP1B3, respectively) and HEK293-mock cells (Corning Life Sciences; Woburn, MA, USA) were used and characterized as previously described.
(§2) HEK293 cells overexpressing drug transporters and HEK293-mock cells were seeded in poly-D-lysine-coated 96-well plates at a density of 10^5 cells/well and were cultured in DMEM supplemented with 10% FBS, 5 mM non-essential amino acids, and 2 mM sodium butyrate in a humidified atmosphere with 8% CO2 at 37 °C.
(§3) To examine the effects of ginsenosides and typical inhibitors on transporter activity, aliquots (100 μL) of HBSS containing the probe substrate and ginsenosides or typical inhibitors were added to the cells after aspirating pre-incubated HBSS. The concentrations and probe substrates were as follows: 0.1 μM [^3H]MPP^+ for OCT1 and OCT2, 0.1 μM [^3H]PAH for OAT1, 0.1 μM [^3H]ES for OAT3 and OATP1B1, and 0.1 μM [^3H]EG for OATP1B3. […] Then the uptake of probe substrates into HEK293-mock cells and HEK293-OCT1, -OCT2, -OAT1, -OAT3, -OATP1B1, and -OATP1B3 cells in the presence and absence of typical inhibitor or each ginsenoside with previously described concentration range was measured for 5 min. Immediately after placing the plates on ice, the cells were washed three times with 100 μL of ice-cold HBSS, followed by lysing with 50 μL of 10% SDS solution and mixing with 150 μL of Optiphase cocktail solution (Perkin Elmer Inc., Boston, MA, USA). The radioactivity of the probe substrates in the cells was determined using a liquid scintillation counter.
(§4) In the inhibition studies, the uptake rate of substrate by HEK293 cells overexpressing the respective transporters was used as the control (100%) and the uptake rate of substrates in the presence of typical inhibitors or ginsenosides expressed as a percentage of the control. The inhibition data were fitted to an inhibitory effect model using Sigma plot (version 10.0; Systat Software Inc., San Jose, CA, USA). IC50 value indicated the half-maximal inhibitory concentration of the inhibitor.

OCT1 = biological target: T2, OCT1 (Homo sapiens, UniProt O15245); test: Inhibition of OCT1-mediated [3H]MPP+ uptake in HEK293-OCT1 cells
T2 sequence (O15245 1-554): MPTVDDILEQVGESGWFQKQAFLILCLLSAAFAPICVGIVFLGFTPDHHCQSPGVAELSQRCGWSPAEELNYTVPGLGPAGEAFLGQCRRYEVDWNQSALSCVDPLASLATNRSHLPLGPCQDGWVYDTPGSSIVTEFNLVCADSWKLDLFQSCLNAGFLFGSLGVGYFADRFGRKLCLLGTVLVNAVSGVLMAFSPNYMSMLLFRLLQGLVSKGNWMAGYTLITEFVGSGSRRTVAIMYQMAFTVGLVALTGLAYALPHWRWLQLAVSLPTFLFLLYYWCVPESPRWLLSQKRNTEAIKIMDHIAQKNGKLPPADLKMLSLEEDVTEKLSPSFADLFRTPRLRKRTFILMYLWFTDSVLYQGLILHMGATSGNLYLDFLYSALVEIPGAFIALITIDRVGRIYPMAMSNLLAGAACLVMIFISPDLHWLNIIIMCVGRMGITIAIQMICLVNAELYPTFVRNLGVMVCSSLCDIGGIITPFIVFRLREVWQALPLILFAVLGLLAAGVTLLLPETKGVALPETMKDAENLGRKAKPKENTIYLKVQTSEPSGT
Method: as §1, §2, §3, §4

OAT3 = biological target: T3, OAT3 (Homo sapiens, UniProt Q8TCC7); test: Inhibition of OAT3-mediated [3H]ES uptake in HEK293-OAT3 cells
T3 sequence (Q8TCC7 1-542): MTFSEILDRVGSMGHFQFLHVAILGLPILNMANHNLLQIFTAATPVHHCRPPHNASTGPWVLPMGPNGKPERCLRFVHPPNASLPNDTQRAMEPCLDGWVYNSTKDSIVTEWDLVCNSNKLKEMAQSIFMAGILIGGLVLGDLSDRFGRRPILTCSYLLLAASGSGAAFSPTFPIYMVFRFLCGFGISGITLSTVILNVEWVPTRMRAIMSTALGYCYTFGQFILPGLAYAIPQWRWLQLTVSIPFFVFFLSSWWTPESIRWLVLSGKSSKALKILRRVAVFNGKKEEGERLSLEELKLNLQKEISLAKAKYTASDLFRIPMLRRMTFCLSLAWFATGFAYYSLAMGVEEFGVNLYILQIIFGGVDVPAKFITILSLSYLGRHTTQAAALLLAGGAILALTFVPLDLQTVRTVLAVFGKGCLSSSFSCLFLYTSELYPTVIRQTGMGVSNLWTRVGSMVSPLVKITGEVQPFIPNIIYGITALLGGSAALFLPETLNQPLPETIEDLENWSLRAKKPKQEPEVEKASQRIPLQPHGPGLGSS
Method: as §1, §2, §3, §4

[1] = HEK293-OATP1B3, 0.1 μM [3H]EG uptake, 5 min
[2] = read-out: IC50 OATP1B3, HEK293-OATP1B3, 0.1 μM [3H]EG uptake, 5 min
[3] = read-out: IC50 OCT1, HEK293-OCT1, 0.1 μM [3H]MPP+ uptake, 5 min
[4] = read-out: IC50 OAT3, HEK293-OAT3, 0.1 μM [3H]ES uptake, 5 min

SMILES: CC(C)=CCC[C@](C)(O[C@@H]1O[C@H](CO[C@@H]2O[C@@H](CO)[C@H](O)[C@H]2O)[C@@H](O)[C@H](O)[C@H]1O)[C@H]1CC[C@]2(C)[C@@H]1[C@H](O)C[C@@H]1[C@@]3(C)CC[C@H](O[C@@H]4O[C@H](CO)[C@@H](O)[C@H](O)[C@H]4O[C@@H]4O[C@H](CO)[C@@H](O)[C@H](O)[C@H]4O)C(C)(C)[C@@H]3CC[C@]12C [Rc, ginsenoside Rc]
- IC50 (OATP1B3): 1.36 µM
- IC50 (OCT1): > 100 µM
- IC50 (OAT3): > 100 µM

SMILES: CC(C)=CCC[C@](C)(O)[C@H]1CC[C@]2(C)[C@@H]1[C@H](O)C[C@@H]1[C@@]3(C)CC[C@H](O[C@@H]4O[C@H](CO)[C@@H](O)[C@H](O)[C@H]4O)C(C)(C)[C@@H]3CC[C@]12C [Rh2, ginsenoside Rh2]
- IC50 (OATP1B3): 30.8 µM
- IC50 (OCT1): > 100 µM
- IC50 (OAT3): > 100 µM

SMILES: CC(C)=CCC[C@](C)(O[C@@H]1O[C@H](CO)[C@@H](O)[C@H](O)[C@H]1O)[C@H]1CC[C@]2(C)[C@@H]1[C@H](O)C[C@@H]1[C@@]3(C)CC[C@H](O[C@@H]4O[C@H](CO)[C@@H](O)[C@H](O)[C@H]4O[C@@H]4O[C@H](CO)[C@@H](O)[C@H](O)[C@H]4O)C(C)(C)[C@@H]3CC[C@]12C [Rd, ginsenoside Rd]
- IC50 (OATP1B3): 25.8 µM
- IC50 (OCT1): > 100 µM
- IC50 (OAT3): > 100 µM

SMILES: CC(C)=CCC[C@](C)(O[C@@H]1O[C@H](CO)[C@@H](O)[C@H](O)[C@H]1O)[C@H]1CC[C@]2(C)[C@@H]1[C@H](O)C[C@@H]1[C@@]3(C)CC[C@H](O)C(C)(C)[C@@H]3[C@@H](O[C@@H]3O[C@H](CO)[C@@H](O)[C@H](O)[C@H]3O[C@@H]3O[C@@H](C)[C@H](O)[C@@H](O)[C@H]3O)C[C@]12C [Re, ginsenoside Re]
- IC50 (OATP1B3): > 100 µM
- IC50 OATP1B3 (OATP1B3; [1]): did not inhibit
- IC50 (OCT1): > 100 µM
- IC50 (OAT3): > 100 µM

SMILES: CC(C)=CCC[C@](C)(O[C@@H]1O[C@H](CO)[C@@H](O)[C@H](O)[C@H]1O)[C@H]1CC[C@]2(C)[C@@H]1[C@H](O)C[C@@H]1[C@@]3(C)CC[C@H](O)C(C)(C)[C@@H]3CC[C@]12C [Compound K, compound K]
- IC50 (OATP1B3; [2]): 8.25 µM
- IC50 (OCT1; [3]): > 100 µM
- IC50 (OAT3; [4]): > 100 µM

SMILES: CC(C)=CCC[C@](C)(O)[C@H]1CC[C@]2(C)[C@@H]1[C@H](O)C[C@@H]1[C@@]3(C)CC[C@H](O)C(C)(C)[C@@H]3[C@@H](O)C[C@]12C [PPT, protopanaxatriol]
- IC50 (OATP1B3; [2]): 20.3 µM
- IC50 (OCT1; [3]): > 100 µM
- IC50 (OAT3; [4]): > 100 µM

SMILES: CC(C)=CCC[C@](C)(O[C@@H]1O[C@H](CO[C@@H]2OC[C@H](O)[C@H](O)[C@H]2O)[C@@H](O)[C@H](O)[C@H]1O)[C@H]1CC[C@]2(C)[C@@H]1[C@H](O)C[C@@H]1[C@@]3(C)CC[C@H](O[C@@H]4O[C@H](CO)[C@@H](O)[C@H](O)[C@H]4O[C@@H]4O[C@H](CO)[C@@H](O)[C@H](O)[C@H]4O)C(C)(C)[C@@H]3CC[C@]12C [Rb2, ginsenoside Rb2]
- IC50 (OATP1B3): 1.76 µM
- IC50 (OCT1): > 100 µM
- IC50 (OAT3): > 100 µM

SMILES: CC(C)=CCC[C@](C)(O)[C@H]1CC[C@]2(C)[C@@H]1[C@H](O)C[C@@H]1[C@@]3(C)CC[C@H](O[C@@H]4O[C@H](CO)[C@@H](O)[C@H](O)[C@H]4O[C@@H]4O[C@H](CO)[C@@H](O)[C@H](O)[C@H]4O)C(C)(C)[C@@H]3CC[C@]12C [Rg3, ginsenoside Rg3]
- IC50 (OATP1B3; [2]): 5.13 µM
- IC50 (OCT1; [3]): > 100 µM
- IC50 (OAT3; [4]): > 100 µM

SMILES: CC(C)=CCC[C@](C)(O)[C@H]1CC[C@]2(C)[C@@H]1[C@H](O)C[C@@H]1[C@@]3(C)CC[C@H](O)C(C)(C)[C@@H]3[C@@H](O[C@@H]3O[C@H](CO)[C@@H](O)[C@H](O)[C@H]3O)C[C@]12C [Rh1, ginsenoside Rh1]
- IC50 (OATP1B3): > 100 µM
- IC50 OATP1B3 (OATP1B3; [1]): did not inhibit
- IC50 (OCT1): > 100 µM
- IC50 (OAT3): > 100 µM

SMILES: CC(C)=CCC[C@](C)(O[C@@H]1O[C@H](CO[C@@H]2O[C@H](CO)[C@@H](O)[C@H](O)[C@H]2O)[C@@H](O)[C@H](O)[C@H]1O)[C@H]1CC[C@]2(C)[C@@H]1[C@H](O)C[C@@H]1[C@@]3(C)CC[C@H](O[C@@H]4O[C@H](CO)[C@@H](O)[C@H](O)[C@H]4O[C@@H]4O[C@H](CO)[C@@H](O)[C@H](O)[C@H]4O)C(C)(C)[C@@H]3CC[C@]12C [Rb1, ginsenoside Rb1]
- IC50 (OATP1B3): 2.28 µM
- IC50 (OCT1): > 100 µM
- IC50 (OAT3): > 100 µM

SMILES: CC(C)=CCCC(C)(O)[C@H]1CC[C@]2(C)[C@@H]1[C@H](O)C[C@@H]1[C@@]3(C)CC[C@H](O)C(C)(C)[C@@H]3CC[C@]12C (stereo in doubt) [PPD, protopanaxadiol]
- IC50 (OATP1B3; [2]): > 100 µM
- IC50 (OCT1; [3]): > 100 µM
- IC50 (OAT3; [4]): > 100 µM

SMILES: CC(C)=CCC[C@](C)(O[C@@H]1O[C@H](CO)[C@@H](O)[C@H](O)[C@H]1O)[C@H]1CC[C@]2(C)[C@@H]1[C@H](O)C[C@@H]1[C@@]3(C)CC[C@H](O)C(C)(C)[C@@H]3[C@@H](O[C@@H]3O[C@H](CO)[C@@H](O)[C@H](O)[C@H]3O)C[C@]12C [Rg1, ginsenoside Rg1]
- IC50 (OATP1B3): > 100 µM
- IC50 OATP1B3 (OATP1B3; [1]): did not inhibit
- IC50 (OCT1): > 100 µM
- IC50 (OAT3): > 100 µM
